The record followed here is EP2197879B1, “C7-SUBSTITUTED CAMPTOTHECIN ANALOGS” (priority 2007, dated 2009).

Like-named read-outs stand apart in the source and are kept apart here.

For data set [1], the system named is A2780/WT (wild-type) cells. The data set can be described thus: Sulforhodamine B (SRB) cytotoxicity assay in A2780/WT cells. It counts as cell-based. As for the experimental part:
(§1) Each of the testing conditions used in this study in both A2780/WT (wild-type) and A2780/DX5 cells were repeated in five to fifteen experiments that were performed on separate days. Each experiment consisted of one microtiter plate with at least eight individual assays of a given drug treatment condition on the plate. The sulforhodamine B (SRB) assay was used to assess cytotoxicity and absorbance at 570 nm (A570) in order to calculate the percentage of cell control (or percent cell survival) for the various treatment conditions in the plate wells.
(§2) Roswell Park Memorial Institute (RPMI 1640) medium, fetal bovine serum (FBS), and L-glutamine were purchased from Gibco BRL. Drugs were dissolved in sterile dimethylsulfoxide (DMSO), from American Type Culture Collection (ATCC) for stock solutions (2.5 to 5.0 mM). Subsequent dilutions were made using cell culture medium (prior to adding the drug to cells). SRB was purchased from Sigma and dissolved in 1.0 percent acetic acid. Trichloroacetic acid was purchased from VWR International.
(§3) Cells were manipulated in a Class IIA/B3 Biological Safety Cabinet (Forma Scientific) and maintained at 37°C in a humidified atmosphere containing 5% CO2 in a water-jacketed cell culture incubator (Forma Scientific). Cells were counted using a Coulter-Z1 counter (Beckman-Coulter). Following drug treatment, plates were washed using a Biomek 2000 station (Beckman) and, following exposure to SRB dye, plates were washed using an automated plate washer (Model EL404, Bio-Tek Instruments). Percentage of control was correlated to A570 values and determined using a Model EL800 plate reader (Bio-Tek Instruments).
(§4) Population doubling times for the two cell lines used in this study encompassed a total of five cell doublings corresponding to approximately 5 days for A2780/WT and A2780/DX5 cells. A2780/WT and A2780/DX5 cells were cultured in RPMI 1640 medium supplemented with 10% fetal bovine serum and 1 mM of L-glutamine. Both cell lines were maintained as monolayered cultures in T-25 or T-75 flasks and then seeded to microtiter plate wells for experiments described herein. Prior to SRB assays, cell viability was monitored by evaluation of microtiter plate wells. Dead cells detach and float while living cells remain attached to the bottom of the cell well.
(§5) The sulforhodamine B (SRB) cytotoxicity assay (see, Skehan P, et al., New colorimetric cytotoxicity assay for anticancer-drug screening. J. Natl. Cancer Inst. 82:1107-1112 (1990)) was used to determine the cytotoxic effects of BNP1350, SN-38, topotecan, 9-NH2-CPT, and 9-NO2-CPT on cell growth in vitro. Briefly, after the medium was aspirated from individual plate wells, trichloroacetic acid (100 µL of 10.0% solution) was added to each well, and the plates were incubated at 4°C for at least 1 hour. The plates were washed five-times with water using an automated microplate washer (Model EL 404, Bio-Tek Instruments), SRB solution (100 µL of 0.4 grams SRB dissolved in 100 mL 1.0 percent acetic acid) was added, and plates remained at room temperature for 15 minutes. The plates were then washed five-times using acetic acid (1.0%), air dried, and bound dye was solubilized in Tris base (150 µL, 10 mM). Plates were agitated (gently) for 5 minutes and the absorbance values of the SRB dye-protein adduct at a 570 nm wavelength (A570) were determined using an automated microtiter plate reader equipped with an A570 filter (Model EL800, BioTek Instruments). Table VII. Summary of Cytotoxicity Experiments in A2780/WT and DX5 Cells
Background: In SRB staining, fixed cells bind dye roughly in proportion to their protein.

The test system of another data set is A2780/DX5 cells. Put plainly: Sulforhodamine B (SRB) cytotoxicity assay in A2780/DX5 cells. The following applies: for IC50 Ratio: A2780/DX5 versus A2780/WT. It counts as cell-based. As for the experimental part:
as §1, §2, §3, §4, §5

Where [2] appears, read: 100 nM Compound Concentrations, 48 hours or longer at room temperature.
Setting [3] is: Homo sapiens, A2780, read-out: A2780/ WT (IC50).
Setting [4] is: Homo sapiens, A2780, read-out: A2780/ DX5 (IC50).
The mark [5] stands for this setting: Homo sapiens, SRB assay, A2780/WT cells, read-out: A2780/ WT (IC50).
The mark [6] stands for this setting: Homo sapiens, SRB assay, A2780/DX5 cells, read-out: A2780/ DX5 (IC50).
Setting [7] is: SRB assay, A2780/WT cells, read-out: A2780/ WT (IC50).
Where [8] appears, read: SRB assay, A2780/DX5 cells, read-out: A2780/ DX5 (IC50).

Consider `CC[C@@]1(O)C(=O)OCc2c1cc1n(c2=O)Cc2c-1nc1ccccc1c2CC[Si](C)(C)CCl` [Compound 3, 11-(4S)-[2-(chloromethyldimethylsilanyl)-ethyl]-4-ethyl-4-hydroxy-1,12-dihydro-4H-2-oxa-6,12a-diaza-dibenzo[b,h]fluorene-3,13-dione], for which, in the data set on human plasma proteins (setting [2]), the “Percent of Free Camptothecin Analogs in Human Plasma” value (from here on “Percent of Free Camptothecin Analogs”) was 1%. Also, the IC50 in data set [1] (setting [3]) amounted to 10 nM; with A2780/DX5 cells (setting [4]) it was 14.5 nM. Besides, in the data set with A2780/DX5 cells, the “IC50 Ratio” value was 1.45.

Consider `CC[C@@]1(O)C(=O)OCc2c1cc1n(c2=O)Cc2c-1nc1ccccc1c2CC[Si](C)(C)COC(C)=O` [Compound 6, acetic acid-(4S)-{[2-(4-ethyl-4-hydroxy-3,13-dioxo-3,4,12,13-tetrahydro-1H-2-oxa-6,12a-diaza-dibenzo[b,h]fluoren-11-yl)-ethyl]-dimethylsilanyl}-methyl ester], for which, in the data set on human plasma proteins (human, 100 nM), the “Percent of Free Camptothecin Analogs” value is recorded as 5%. Further, the IC50 in data set [1] (setting [5]) amounted to 9.3 nM; in the data set with A2780/DX5 cells (setting [6]), 21.1 nM. Moreover, in the data set with A2780/DX5 cells, the “IC50 Ratio” value came out at 2.27.

On to `CC[C@@]1(O)C(=O)OCc2c1cc1n(c2=O)Cc2c-1nc1ccccc1c2CC[Si](C)(C)CCCO` [Compound 10, 4S-4-ethyl-4-hydroxy-11-{2-[(3-hydroxypropyl)-dimethylsilanyl]-ethyl}-1,12-dihydro-4H-2-oxa-6,12a-diaza-dibenzo[b,h]fluorene-3,13-dione], for which the “Percent of Free Camptothecin Analogs” value in the data set on human plasma proteins (setting [2]) came to 3.4%. The IC50 in data set [1] (setting [7]) turned out to be 9.6 nM; in the data set with A2780/DX5 cells (setting [8]), 35.3 nM. For the same compound, in the data set with A2780/DX5 cells, the “IC50 Ratio” value was 3.68.

Take `CC[C@@]1(O)C(=O)OCc2c1cc1n(c2=O)Cc2c-1nc1ccccc1c2CC[Si](C)(C)Cn1cncn1` [Compound 30, (4S)-11-[2-(dimethyl-[1,2,4]triazol-1-ylmethylsilanyl)-ethyl]-4-ethyl-4-hydroxy-1,12-dihydro-4H-2-oxa-6,12a-diaza-dibenzo[b,h]fluorene-3,13-dione]: in the data set with human plasma proteins (human, 100 nM), the “Percent of Free Camptothecin Analogs” value came out at 8%. The IC50 in data set [1] (setting [3]) is 7.7 nM; with A2780/DX5 cells (setting [6]), 60.4 nM. In the data set on A2780/DX5 cells, the “IC50 Ratio” value amounted to 7.8.

For the compound `CC[C@@]1(O)C(=O)OCc2c1cc1n(c2=O)Cc2c-1nc1ccccc1c2CC[Si](C)(C)CCCOC(C)=O` [Compound 60, Acetic acid 3-{[2-(4-ethyl-4-hydroxy-3,13-dioxo-3,4, 12, 13-tetrahydro-1H-2-oxa-6,12a-diaza-dibenzo[b,h]fluoren-11-yl)-ethyl]-dimethyl-silanyl}-propyl ester], the IC50 in data set [1] (setting [5]) was determined as 10.6 nM; in the data set on A2780/DX5 cells (setting [6]), 32.1 nM. Further, the “IC50 Ratio” value in the data set on A2780/DX5 cells worked out at 3.

On to `CCC1(O)C(=O)OCc2c1cc1n(c2=O)Cc2c-1nc1ccccc1c2CC[Si](C)(C)CCCOC(=O)C1CCC1` (stereo not shown) [Compound 62, Cyclobutanecarboxylic acid 3-{[2-(4-ethyl-4-hydroxy-3, 13-dioxo-3,4, 12, 13-tetrahvdro-1H-2-oxa-6,12a-diaza-dibenzo[b,h]fluoren-11-yl)-ethyl]-dimethyl-silanyl}-propyl ester], for which the values for the IC50 (in data set [1] (setting [7]); in the data set with A2780/DX5 cells (setting [8])) were 10.4 nM and 39.2 nM, respectively. Also, the “IC50 Ratio” value in the data set on A2780/DX5 cells amounted to 3.77.

Take `CCC1(O)C(=O)OCc2c1cc1n(c2=O)Cc2c-1nc1ccccc1c2CC[Si](C)(C)CCCOC(=O)C1=CCNO1` (stereo not shown) [Compound 64, 2,3-Dihydro-isoxazole-5-carboxylic acid 3-{[2-(4-ethyl-4-hydroxy-3,13-dioxo-3,4,12,13-tetrahydro-1H-2-oxa-6,12a-diaza-dibenzo[b,h]fluoren-11-yl)-ethyl]-dimethyl-silanyl}-propyl ester]: the figures for the IC50 (in data set [1] (setting [3]); in the data set on A2780/DX5 cells (setting [4])) were 14 nM and 59.8 nM, respectively. In the data set on A2780/DX5 cells, the “IC50 Ratio” value came to 4.27.

For `CCc1c2c(nc3ccccc13)-c1cc3c(c(=O)n1C2)COC(=O)[C@]3(O)CC` [SN-22], the “Percent of Free Camptothecin Analogs” value in the data set with human plasma proteins (setting [2]) came out at 1%.

Take `CCc1c2c(nc3ccc(O)cc13)-c1cc3c(c(=O)n1C2)COC(=O)[C@]3(O)CC` [SN-38, 10-hydroxy-7-ethyl camptothecin]: in the data set with human plasma proteins (setting [2]), the “Percent of Free Camptothecin Analogs” value came out at 15%.

`CC[C@@]1(O)C(=O)OCc2c1cc1n(c2=O)Cc2cc3c(CN(C)C)c(O)ccc3nc2-1` [Topotecan, 9-dimethylaminomethyl-10-hydroxy camptothecin]: the “Percent of Free Camptothecin Analogs” value in the data set with human plasma proteins (setting [2]) is 100%.
